Data as given in a melting point compilation (Tetko et al.; mined from patent text by program, amines drawn as free bases though some values may be those of a salt).

SMILES	melting point
Cc1cc2c(=O)c(Cc3cccnc3)cn3c4ccc(Br)cc4c(c1)c23	202 to 204 °C
CC(=NO)c1cc2c3ccccc3[nH]c(=O)n2n1	340 to 342 °C
CN(c1cccc2cc(C3=NCC(CC(N)=O)S3)[nH]c12)S(=O)(=O)c1ccccn1 (configuration not stated)	149 to 150 °C
Cn1nc(-c2ccc(S(C)(=O)=O)cc2)c(-c2ccc(F)cc2)c1C(F)(F)F	166 to 169 °C
CCOC(=O)CNC(=O)CCc1cc(Cl)ccc1C(=O)CCCNC(=O)CCCNC(C)=O	94 to 96 °C
CCC(Nc1ccncc1)c1ccccc1 (configuration not stated)	190 to 192 °C
CN1CCC(c2c[nH]c3cc(NC(=N)c4cccs4)ccc23)C1 (configuration not stated)	89 to 91 °C
Cc1cc(C(N)=O)ncc1C(c1c(F)ccc(F)c1F)S(=O)(=O)CCC(C)(C)C (configuration not stated)	143 to 144 °C
CCCc1cc(CC(=O)O)ccc1OCc1ccc2ccccc2n1	135 °C
Cc1cccc2cc3c(=O)n(CCc4cn(C(=O)NCCN(C)C)c5ccccc45)cc(C(=O)NCCN(C)C)c3nc12	182 to 185 °C
FCCOc1ccc(COCOc2ccc(Cl)cc2)cc1	60.7 to 61.6 °C
CCCNC(=O)Oc1ccc2c(ccn2N(CCC)c2ccncc2)c1	120 to 122 °C
Cn1nc(-c2ccc(Br)cc2)c2ccccc2c1=O	168 to 170 °C
O=C(C1CC1)N1CC[C@@H](Oc2ccc(F)cc2)[C@H](c2ccccc2)C1 (relative stereo)	113 to 115 °C
N#Cc1ncccc1CCc1ccc(F)cc1	48 to 49 °C
O=C(CC(C[N+](=O)[O-])c1ccccc1)c1ccc(O)cc1 (configuration not stated)	112 to 113 °C
N#Cc1ccc(-c2ccc(-c3ccn([C@H](CC(=O)OCc4ccccc4)C(=O)N[C@H](CO)Cc4ccccc4)c3)cc2)cc1	149 to 150 °C
O=Cc1c(Cl)nc(-c2ccccc2)n1Cc1ccc(Br)cc1	92 to 95 °C
COc1ccc(C2(C#Cc3ccccc3)CCC(=O)CC2)cc1OC1CCCC1	99 to 100 °C
C=CCC(C(N)=O)C(N)=O	168 to 169 °C
CCN(CC)C(=O)n1c(C(=O)C(C)(C)c2ccc(Cl)cc2)cc2cc(OC)ccc21	172 to 175 °C
O=C1O[C@@H](CO)CN1c1ccc(C2=CCOCC2)c(F)c1	127 to 130 °C
COC(=O)c1sc(OC)c(Br)c1O	107 to 109 °C
O=C(O)CCCC(=O)N1C2CCC(C2)C1C(=O)O (configuration not stated)	155 to 159 °C
O=C(CCl)NCC1CCCCC1	85 to 86 °C

SMILES	melting point
COc1ccc(-c2c(Br)c(CN3C(=O)CCC3=O)nc3sc4c(c23)CCN(Cc2ccccc2)C4)cc1	255 to 256 °C
COc1ccc([N+](=O)[O-])c2c1OCC(C(=O)Nc1ccc(N3CCOCC3)cc1)C2 (configuration not stated)	238 to 240 °C
CCOC(=O)c1cn(CC)c2nc(OC)ncc2c1=O	149 °C
COC(=O)c1ccc(Cl)c(N)c1Cl	50 to 52 °C
CC(C)[C@H](NC(=O)/C=C/c1nccs1)C(=O)N[C@@H](Cc1ccccc1)[C@@H](O)[C@H](O)[C@H](Cc1ccccc1)NC(=O)[C@@H](NC(=O)/C=C/c1nccs1)C(C)C	> 260 °C
O=C(O)CCOc1cccc2c1CCc1sc(SCC(c3ccccc3)c3ccccc3)nc1-2	123 to 125 °C
COc1ccnc(OC)c1CON=C(C)c1cc(C)cc(C)n1	114 to 116 °C
CS(=O)(=O)NC(=O)C1(CCCCCCCCCCCCC2(C(=O)O)CC2)CC1	97.5 to 99.4 °C
CCCC(=O)Nc1cc(Cl)c(O)c(Cl)c1	146 to 147 °C
CCOC(=O)C(C)=NNc1ccc(Cl)c(F)c1	161 to 163 °C
CCOC(=O)N1CCc2[nH]cc3c(=O)n(-c4ccc(Cl)cc4)nc-3c2C1	357 to 359 °C
COC(=O)c1ccc(CNC(=O)C[C@H]2O[C@H](c3cccc(OC)c3OC)c3cc(Cl)ccc3N(CC(C)(C)CO)C2=O)cc1	110 to 112 °C
Cc1cc(C)c2c(c1C)OC(C)(C)C2	47 °C
CC(C)n1nc(-c2c(-c3ccccc3)nn3ccc(OCC(=O)N4CCN(C(=O)OC(C)(C)C)CC4)cc23)ccc1=O	140 to 144 °C
CCOC(=O)CNc1nc(-c2ccccc2)c2cc(Cl)ccc2n1	146 °C
CCC(C(=O)C(C)C(O)C(C)CCc1c(Cl)cc(C)c(O)c1C(=O)O)C1OC(CC)(C2CCC(O)(CC)C(C)O2)CC1C (configuration not stated)	183 to 185 °C
COC(=O)CCCCCCCCOC1OC(CO)C(O)C(OC2OC(CO)C(O)C(O)C2O)C1OC1OC(C)C(O)C(O)C1O (configuration not stated)	147 to 150 °C
CS(=O)(=O)NCCCC(c1cc(F)ccc1F)S(=O)(=O)c1ccc(Cl)cc1 (configuration not stated)	128 °C
Cc1cc(=O)c(OCc2ccccc2)c(C=O)o1	78 to 81 °C
CCOC(=O)C(C#N)=NOC(=O)Oc1cc(Cl)c(Cl)cc1Cl	101 to 103 °C
O=C(Nc1ccccc1)NC1CCN2CCc3ccccc3C2C1 (configuration not stated)	210 °C
CC(C)CCSCC[C@H](O)[C@@H](N)CC(C)C	64 to 65 °C
CCCCc1nn(-c2cc(NC(=O)CC)ccc2C(F)(F)F)c(=O)n1Cc1ccc(-c2ccccc2S(=O)(=O)NC(=O)OC(C)(C)C)cc1	158 to 161 °C
CCOC(=O)c1cc(-n2c(=O)ccn(C)c2=O)ccc1Cl	147 to 148 °C
CCCCN=C(CS(C)=O)c1ccccc1O (configuration not stated)	128 to 129 °C

SMILES	melting point
CC(N/C(C#N)=C(\N)C#N)c1ccc(Cl)cc1 (configuration not stated)	145 to 146 °C
C(=Nc1c2c(nc3ccccc13)CCCC2)c1ccccc1	168 to 169 °C
CC(=O)OCC(=O)C1(O)C(C)CC2C3CCC4=CC(=O)C=CC4(C)C34OC4CC21C (configuration not stated)	180 to 186 °C
Fc1ccc(-c2nc(S)nc(-c3ccccn3)n2)cc1	> 270 °C
COC(=O)C1N=C(c2ccccc2F)c2cc(Cl)ccc2-n2c1cnc2C (configuration not stated)	203 to 205 °C
O=C(O)c1ccc2[nH]c3c(c2c1)CCCCCC3	240 to 241 °C
COc1ccc(C(=O)N2c3ccc(OC)cc3CC2C(=O)O)cc1 (configuration not stated)	151 to 152 °C
CC(C)(C)OC(=O)NCCCCC(=O)N[C@@H](CC(=O)OCc1ccccc1)C(=O)N[C@@H](Cc1ccccc1)C(=O)OCc1ccccc1	120 °C
Clc1c(CN[C@H]2CC[C@@H](c3ccccc3)CC2)ccn2c(CC3CC3)nnc12	171 °C
CCN1C(=O)C(C)(C)C(=O)N(C)c2cc(CN(CCn3ccc4oc(C(F)(F)F)cc4c3=O)Cc3cccnc3C)ccc21	132 to 134 °C
COc1ccc(SCCCC(=O)O)cc1OC	78 °C
Cc1c(N=C2NCCN2)cccc1N(C)C	116 to 118 °C
CCCn1cc2c(C3(F)C(=O)Nc4ccc(Br)cc43)ncnc2n1 (configuration not stated)	184 to 186 °C
N#CC(Cc1ccc(O)cc1)c1noc2cc(O)ccc12 (configuration not stated)	214 °C
CCC1(CC)NS(=O)(=O)c2ccccc21	174 °C
COc1cc(Cl)c(C(=O)c2ccc([N+](=O)[O-])cc2)c(Cl)c1	147 to 150 °C
O=C(CCCOc1cccc(CN2CCCCC2)c1)Nc1nc(CCc2ccccc2)n[nH]1	192 to 193 °C
Cc1cc(C)c(C2=C(OC(=O)C(C)(C)C)CN(C)C2=O)c(C)c1	75 °C
CCOC(=O)C(=O)c1cc(OC)c(OCOC)c2c(Cc3ccccc3)cccc12	70 to 72 °C
Cc1nc(NC(=O)c2cnn3c(C(F)(F)F)cc(-c4ccc(Cl)cc4)nc23)sc1S(=O)(=O)NC(C)(C)CO	274 °C
CN1C(=O)[C@@H](NC(=O)[C@H](N)Cc2ccccc2)N=C(C2CCCCC2)c2ccccc21	75 to 78 °C
COc1cc(C(=O)c2ncc3ccc(NC(=O)OC(C)(C)C)cn23)ccc1[N+](=O)[O-]	200 °C
O=c1[nH]c2ccc3ccccc3c2n(CCc2ccccc2)c1=O	268 °C
CS(=O)(=O)Nc1cc2c(cc1Oc1ccccc1)C(NS(C)(=O)=O)C=C2 (configuration not stated)	154 °C
CCC(C)(N)Cc1c[nH]c2ccccc12 (configuration not stated)	112 °C

SMILES	melting point
Cc1nnc(-c2ccc3occ(-c4ccc(CO)cc4)c3c2)o1	157 to 158 °C
CCOc1cc(NC(=S)NS(=O)(=O)c2ccc(C)cc2)ccn1	152 to 153 °C
O=C1CCC(N2Cc3c(OCc4ccc(CN5CCC(F)(F)C5)cc4)cccc3C2=O)C(=O)N1 (configuration not stated)	126 to 128 °C
Cc1nn(-c2ccccn2)c2nc3ccccc3cc12	153 to 154 °C
O=C(NC1N=C(c2ccccc2)c2oc3ccccc3c2NC1=O)OCc1ccccc1 (configuration not stated)	> 260 °C
CC(C)(C)OC(=O)N1CCC2(CC1)CC(=O)N(OCC#N)C2=O	138 to 139 °C
CC(C)(C)c1ccc(CN=C2SCN(c3ccccc3)C(=O)N2CC(F)(F)F)cc1	90 to 91.5 °C
O=c1[nH]c2cc(-c3ccccc3)nnc2c2ccccc12	340 to 342 °C
Oc1ccc(OC[C@@H](O)CNCCc2ccc(-n3c(CCC4CCCC4)nc4cccnc43)cc2)cc1	59 to 61 °C
Cc1nc2n(c(=O)c1CCN1CCC(C(=NO)c3ccc(F)cc3F)CC1)CCCC2	180 to 183 °C
CN1CCN(c2cccc(CS(=O)(=O)c3ccccc3)c2[N+](=O)[O-])CC1	180 to 182 °C
N=C(N)c1ccc2cc(OC(=O)C3CCC3)ccc2c1	225 to 230 °C
Cc1ncncc1C(=O)Nc1cc(F)c(-n2nc(C(F)(F)F)cc2C2CC2)c(F)c1	147 to 150 °C
O=C(Nc1ccc(CCO)c(CO)c1)OCc1ccccc1	101 to 103 °C
COc1ccc(C2CCN(C(=O)Nc3ccc4cc(CN5CCCC5)ccc4c3)CC2)cc1	194 to 196 °C
Cc1cccc2sc(=O)[nH]c12	207 to 208 °C
O=C1CCC(c2ccccc2)(c2ccccc2)[C@@H]2CN(C(=O)Cc3c(F)cccc3F)C[C@H]12 (racemic)	218 °C
S=c1n(CNc2ccc(Br)cc2)nc(-c2ccncc2)n1-c1ccccc1	208 to 209 °C
NNC1=NOCc2ccc(Cl)cc21	148 to 149 °C
COCC1CN(c2ccc(C3CCC(OCCC#N)CC3)cc2)C(=O)O1 (racemic)	57 to 59 °C
N=c1cc(NC(=S)Nc2ccccc2)nc2n1CCCS2	157 to 158 °C
COC(=O)[C@H](O)[C@@H](NC(=O)OC(C)(C)C)c1ccc(C#N)cc1	250 °C
